Format in all cases: in vivo, ICR strain male mice (Crj:CD-1)
One experiment has as its system G-CSF. In words: Test for investigating the increase of G-CSF concentration in normal mice (plasma, mouse G-CSF ELISA). The conditions noted are these: blood on day after completion. Here is the method: ICR strain male mice (Crj:CD-1) aged 7 weeks were used in the test. The animals were divided into 4 groups of 5 animals per group. The following were intravenously and repeatedly administered to the groups, respectively, for 5 days; the first group: physiological saline as solvent, the second group: sulphostin (10 mg/kg/day), the third group: sulphostin (30 mg/kg/day), and the fourth group: sulphostin (90 mg/kg/day). On the day subsequent to completion of the administration, blood was drawn from the abdominal aorta under anesthesia. The blood obtained was centrifuged to collect plasma, and G-CSF was measured by the use of a mouse G-CSF ELISA measuring kit (R & D SYSTEMS Inc.).
A general note: In an ELISA, binding on a coated surface is turned into a signal by an enzyme label.

Experiment [1] relates to leukocytes. In words: Test for evaluating an efficacy on drug-induced leukopenia (cyclophosphamide). The following applies: for number of leukocytes, percentage based on Day 0 / number of leukocytes (mean ± S.D): cyclophosphamide 200 mg/kg i.p. Day 0. The method, then:
The effect of sulphostin [3(S)-amino-1-((R)-amino(sulfoamino)phosphinyl)-2-piperidone] on drug-induced leukopenia was evaluated according to the method of Okabe et al. (Yakuri to Chiryo (Japanese Pharmacology and Therapeutics) Vol. 19, No. 6, p. 55, 1991).
ICR strain male mice (Crj:CD-1) aged 8 weeks were used in the test. The animals were divided into three groups of 3 or 4 animals per group.
On Day 0, cyclophosphamide was intraperitoneally administered once to all the groups in a dose of 200 mg/kg. From the next day, the following were intravenously and repeatedly administered to the groups, respectively, for 5 days (Day 1 to 5); the first group (a control group): physiological saline, the second group: sulphostin (30 mg/kg/day), and the third group: sulphostin (100 mg/kg/day). Blood was drawn from the posterior-eyehole venous plexus on Day 0 (before the administration of cyclophosphamide) and Days 2, 4, 6 and 8 (the blood drawing, however, was carried out only on Days 0, 4 and 6 in the case of the second group), and the number of leukocytes was periodically measured to investigate the leukocyte-increasing effect of sulphostin relative to a decrease of leukocytes caused by cyclophosphamide.
The data are expressed as the mean±S.D and percentages based on the number of leukocytes on Day 0. ND refers to no data.

Experiment [2] concerns leukocytes. Description: Test for investigating the increase of leukocytes in normal mice. The conditions noted are these: blood on day after last administration. Here is the method: ICR strain male mice (Crj:CD-1) aged 7 weeks were used in the test. The animals were divided into 5 groups of 4 animals per group. The following were intravenously and repeatedly administered to the groups, respectively, for 5 days; the first group: physiological saline as solvent, the second group: sulphostin (2 mg/kg/day), the third group: sulphostin (10 mg/kg/day), the fourth group: sulphostin (50 mg/kg/day), and the fifth group: sulphostin (250 mg/kg/day). On the day subsequent to the last day of the administration period, blood was drawn from the abdominal aorta under anesthesia and the number of leukocytes was measured.

[3] abbreviates: sulphostin 10 mg/kg/day i.v. for 5 days.

`N[C@H]1CCCN([P@@](N)(=O)NS(=O)(=O)O)C1=O` [Sulphostin, 3(S)-amino-1-((R)-amino(sulfoamino)-phosphinyl)-2-piperidone]: the “G-CSF level higher than that of the control group by factor” value is reported as 1.03 in the experiment with G-CSF (setting [3]), 6.1 with G-CSF (sulphostin 30 mg/kg/day i.v. for 5 days) and 7.0 with G-CSF (sulphostin 90 mg/kg/day i.v. for 5 days). Also, the “number of leukocytes, percentage based on Day 0” value with leukocytes [1] (sulphostin 30 mg/kg/day i.v. Day 1 to 5, Day 0 (before cyclophosphamide)) was 100%; with leukocytes [1] (sulphostin 30 mg/kg/day i.v. Day 1 to 5, Day 4), 30%; with leukocytes [1] (sulphostin 30 mg/kg/day i.v. Day 1 to 5, Day 6) it was 95%; with leukocytes [1] (sulphostin 100 mg/kg/day i.v. Day 1 to 5, Day 0 (before cyclophosphamide)) it was 100%; with leukocytes [1] (sulphostin 100 mg/kg/day i.v. Day 1 to 5, Day 2), 55%; in the experiment with leukocytes [1] (sulphostin 100 mg/kg/day i.v. Day 1 to 5, Day 4), 26%. Moreover, the “number of leukocytes, percentage based on Day 0” value in the experiment on leukocytes [1] (sulphostin 100 mg/kg/day i.v. Day 1 to 5, Day 6) is 126%; with leukocytes [1] (sulphostin 100 mg/kg/day i.v. Day 1 to 5, Day 8) it was 668%. For the same compound, the “number of leukocytes (mean ± S.D)” value is reported as 44 ± 7.1 ×100/millimeter cube with leukocytes [1] (sulphostin 30 mg/kg/day i.v. Day 1 to 5, Day 0 (before cyclophosphamide), n = 3); 13 ± 12.5 ×100/millimeter cube in the experiment with leukocytes [1] (sulphostin 30 mg/kg/day i.v. Day 1 to 5, Day 4, n = 3); 42 ± 14.5 ×100/millimeter cube in the experiment with leukocytes [1] (sulphostin 30 mg/kg/day i.v. Day 1 to 5, Day 6, n = 3); 38 ± 17.2 ×100/millimeter cube in the experiment with leukocytes [1] (sulphostin 100 mg/kg/day i.v. Day 1 to 5, Day 0 (before cyclophosphamide), n = 4); 21 ± 5.1 ×100/millimeter cube in the experiment on leukocytes [1] (sulphostin 100 mg/kg/day i.v. Day 1 to 5, Day 2, n = 4); 10 ± 6.3 ×100/millimeter cube with leukocytes [1] (sulphostin 100 mg/kg/day i.v. Day 1 to 5, Day 4, n = 4). For the same compound, the “number of leukocytes (mean ± S.D)” value in the experiment with leukocytes [1] (sulphostin 100 mg/kg/day i.v. Day 1 to 5, Day 6, n = 4) was 48 ± 23.8 ×100/millimeter cube; in the experiment on leukocytes [1] (sulphostin 100 mg/kg/day i.v. Day 1 to 5, Day 8, n = 4), 254 ± 75.5 ×100/millimeter cube. Moreover, the “restoration of the number of leukocytes to the initial value after the administration of cyclophosphamide, time required” value with leukocytes [1] (sulphostin-treated groups (30 and 100 mg/kg/day i.v.), control group requires 8 days) worked out at 6 days. The “number of leukocytes larger than that of the control group by factor” value is reported as 1.4 with leukocytes [2] (sulphostin 2 mg/kg/day i.v. for 5 days), 1.9 in the experiment with leukocytes [2] (setting [3]), 4.9 in the experiment with leukocytes [2] (sulphostin 50 mg/kg/day i.v. for 5 days) and 5.9 in the experiment on leukocytes [2] (sulphostin 250 mg/kg/day i.v. for 5 days).

Values taken from patent publication US7247640B2, “Medicament for treatment of bone marrow suppression, for treatment of infectious diseases and for increasing the number of leukocytes” (Nippon Kayaku Kabushiki Kaisha, priority 2001, dated 2007).
